Values quoted from earlier work in patent publication US20130022829A1, “OIL BORNE WOOD PRESERVING COMPOSITION FOR TREATMENT OF POLES, POSTS, PILING, CROSSTIES AND OTHER WOODED STRUCTURES” (Osmose, Inc., priority 2009, published 2013).

Tested on: Poria
Conditions: background statement on copper soaps

Compound	efficacy against copper tolerant fungi, e.g., Poria sp.
CCCCC(CC)C(=O)[O-].CCCCC(CC)C(=O)[O-].[Cu+2] (centres unmarked) [Cu-octoate]	insufficient efficacy
Cu-naphthenate	insufficient efficacy
